Experimental data published in patent publication US8952024B2, “Herbicidal pyrimidone derivatives” (E I du Pont de Nemours and Company, priority 2009, dated 2015).

Key:
Type in all cases: in vivo
[1] = test system: Italian ryegrass (Lolium multiflorum); experiment: Test B pre-/postemergence plant response; conditions: for Ryegrass, Italian plant response rating (0 to 100 scale): 62 g ai/ha, 0 is no effect, 13 to 15 days
Method in brief: (§1)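 Visually scored on a 0 to 100 scale after 13 to 15 days in greenhouse versus controls. Treatments were preemergence on seeded loam/sand soil and postemergence on 1- to 4-leaf plants.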

[2] = test system: giant foxtail (Setaria faberii); experiment: Test B pre-/postemergence plant response; conditions: for Foxtail, Giant plant response rating (0 to 100 scale): 62 g ai/ha, 0 is no effect, 13 to 15 days
Method in brief: as §1

[3] = test system: ragweed (common ragweed, Ambrosia elatior); experiment: Test B pre-/postemergence plant response; conditions: for Ragweed plant response rating (0 to 100 scale): 62 g ai/ha, 0 is no effect, 13 to 15 days
Method in brief: as §1

[4] = test system: canarygrass (Phalaris minor); experiment: Test B postemergence plant response; conditions: for Canarygrass plant response rating (0 to 100 scale): 62 g ai/ha, 0 is no effect, 13 to 15 days
Method in brief: (§2)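 Plants at the 1- to 4-leaf stage (2 to 18 cm tall), grown in pots of peat moss/vermiculite medium with wetting agent and starter nutrients, received postemergence applications of test chemicals. After 13 to 15 days in a greenhouse, injury was rated visually against untreated controls on a 0 (no effect) to 100 (complete control) scale.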

[5] = test system: chickweed (Stellaria media); experiment: Test B postemergence plant response; conditions: for Chickweed plant response rating (0 to 100 scale): 62 g ai/ha, 0 is no effect, 13 to 15 days
Method in brief: as §2

[6] = test system: windgrass (Apera spica-venti); experiment: Test B postemergence plant response; conditions: for Windgrass plant response rating (0 to 100 scale): 62 g ai/ha, 0 is no effect, 13 to 15 days
Method in brief: as §2

[7] = test system: winter barley (Hordeum vulgare); experiment: Test B postemergence plant response; conditions: for Barley plant response rating (0 to 100 scale): 62 g ai/ha, 0 is no effect, 13 to 15 days
Method in brief: as §2

[8] = test system: barnyardgrass (Echinochloa crus-galli); experiment: Test B flooded paddy test; conditions: for Plant response rating, Flood, Barnyardgrass: 250 g ai/ha, flooded paddy test, visual rating on 0 to 100 scale (0 no effect, 100 complete control) after 13 to 15 days; for Plant response rating, Barnyardgrass: Flood (flooded paddy test), 13 to 15 days; for Barnyardgrass plant response rating: Flood, 31 g ai/ha, scale 0 to 100 (0 no effect, 100 complete control)
Method in brief: (§3)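 Visual scores run from 0 (no effect) to 100 (complete control), assigned by comparison with controls 13 to 15 days after treatment. Test compounds went straight into water standing 3 cm above the soil, around plants at the 2-leaf stage kept in a greenhouse.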

[9] = test system: ducksalad (Heteranthera limosa); experiment: Test B flooded paddy test; conditions: for Plant response rating, Flood, Ducksalad: 250 g ai/ha, flooded paddy test, visual rating on 0 to 100 scale (0 no effect, 100 complete control) after 13 to 15 days; for Plant response rating, Ducksalad: Flood (flooded paddy test), 13 to 15 days; for Ducksalad plant response rating: Flood, 31 g ai/ha, scale 0 to 100 (0 no effect, 100 complete control)
Method in brief: as §3

[10] = test system: rice (Oryza sativa); experiment: Test B flooded paddy test; conditions: for Plant response rating, Flood, Rice: 250 g ai/ha, flooded paddy test, visual rating on 0 to 100 scale (0 no effect, 100 complete control) after 13 to 15 days; for Plant response rating, Rice: Flood (flooded paddy test), 13 to 15 days; for Rice plant response rating: Flood, 31 g ai/ha, scale 0 to 100 (0 no effect, 100 complete control)
Method in brief: as §3

[11] = test system: umbrella sedge (Cyperus difformis); experiment: Test B flooded paddy test; conditions: for Plant response rating, Flood, Sedge, Umbrella: 250 g ai/ha, flooded paddy test, visual rating on 0 to 100 scale (0 no effect, 100 complete control) after 13 to 15 days; for Plant response rating, Sedge, Umbrella: Flood (flooded paddy test), 13 to 15 days; for Sedge, Umbrella plant response rating: Flood, 31 g ai/ha, scale 0 to 100 (0 no effect, 100 complete control)
Method in brief: as §3

[12] = 31 g ai/ha, postemergence, scale 0 to 100, 0 is no effect, 100 is complete control
[13] = postemergence, 100 is complete control
[14] = Postemergence, 250 g ai/ha, scale 0 to 100 (0 no effect, 100 complete control)
[15] = Postemergence, 125 g ai/ha, visual rating after 13 to 15 days, scale 0 (no effect) to 100 (complete control)
[16] = 62 g ai/ha, scale of 0 to 100 where 0 is no effect and 100 is complete control
[17] = 125 g ai/ha, scale 0 to 100, 0 is no effect, 100 is complete control
[18] = Postemergence, 125 g ai/ha, scale 0 to 100 (0 no effect, 100 complete control)

Structure (SMILES) | Ryegrass, Italian plant response rating (0 to 100 scale) [1, 13] | Plant response rating, Ryegrass, Italian [1, 14] | Plant response rating, Foxtail, Giant [2, 12] | Foxtail, Giant plant response rating (0 to 100 scale) [2, 13] | Plant response rating, Foxtail, Giant [2, 14] | Ragweed plant response rating (0 to 100 scale) [3, 13] | Plant response rating, Ragweed [3, 14] | Plant response rating, Canarygrass [4, 12] | Canarygrass plant response rating (0 to 100 scale) [4, 13] | Plant response rating, Canarygrass [4, 14] | Plant response rating, Chickweed [5, 12] | Chickweed plant response rating (0 to 100 scale) [5, 13] | Plant response rating, Chickweed [5, 14] | Windgrass plant response rating (0 to 100 scale) [6, 13] | Plant response rating, Barley [7, 12] | Barley plant response rating (0 to 100 scale) [7, 13] | Plant response rating, Barley [7, 14] | Plant response rating, Flood, Barnyardgrass [8] | Plant response rating, Barnyardgrass [8, 16] | Plant response rating, Barnyardgrass [8, 17] | other results
COCCOCCn1c(-c2ccccc2)ncc(C(=O)C2=C(O)CCCC2=O)c1=O [Compound 91] | 5 | 20 | 85 | 98 | 98 | 85 | 98 | 25 | 55 | 75 | 85 | 95 | 100 | 40 | 0 | 30 | 40 | 65 | 20 | 60 | Plant response rating, Ryegrass, Italian [1, 12]: 0; Plant response rating, Ragweed [3, 12]: 85; Plant response rating, Canarygrass [4, 15]: 65; Plant response rating, Chickweed [5, 15]: 98; Plant response rating, Windgrass [6, 12]: 10; Plant response rating, Windgrass [6, 14]: 65; Plant response rating, Barley [7, 15]: 30; Barnyardgrass plant response rating [8]: 15; Plant response rating, Flood, Ducksalad [9]: 100; Plant response rating, Ducksalad [9, 16]: 90; Plant response rating, Ducksalad [9, 17]: 90; Ducksalad plant response rating [9]: 65; Plant response rating, Flood, Rice [10]: 15; Plant response rating, Rice [10, 16]: 15; Plant response rating, Rice [10, 17]: 15; Rice plant response rating [10]: 0; Plant response rating, Flood, Sedge, Umbrella [11]: 100; Plant response rating, Sedge, Umbrella [11, 16]: 95; Plant response rating, Sedge, Umbrella [11, 17]: 100; Sedge, Umbrella plant response rating [11]: 75
COCCn1c(-c2ccco2)ncc(C(=O)C2=C(O)CCCC2=O)c1=O [Compound 111] | 0 | 5 | 60 | 65 | 70 | 95 | 98 | 0 | 0 | 15 | 95 | 100 | 100 | 30 | 0 | 0 | 30 | 60 | 40 | 50 | Plant response rating, Ryegrass, Italian [1, 18]: 0; Plant response rating, Foxtail, Giant [2, 18]: 65; Plant response rating, Ragweed [3, 18]: 98; Plant response rating, Canarygrass [4, 18]: 0; Plant response rating, Chickweed [5, 18]: 100; Plant response rating, Windgrass [6, 18]: 35; Plant response rating, Barley [7, 18]: 5; Barnyardgrass plant response rating [8]: 0; Plant response rating, Flood, Ducksalad [9]: 75; Plant response rating, Ducksalad [9, 16]: 30; Plant response rating, Ducksalad [9, 17]: 75; Ducksalad plant response rating [9]: 30; Plant response rating, Flood, Rice [10]: 30; Plant response rating, Rice [10, 16]: 0; Plant response rating, Rice [10, 17]: 0; Rice plant response rating [10]: 0; Plant response rating, Flood, Sedge, Umbrella [11]: 85; Plant response rating, Sedge, Umbrella [11, 16]: 75; Plant response rating, Sedge, Umbrella [11, 17]: 80; Sedge, Umbrella plant response rating [11]: 0
